Measurements from patent US6403116B1, “Coenzyme Q10 formulation” (Triarco Inductries, Inc., priority 2000, dated 2002).
Where two headings read alike, the source gives them in different places.

Tests used:
[1] = Coenzyme Q10 added separately to aqueous solutions of the other composition ingredients; assay type: physicochemical; conditions: 5 mg coenzyme Q10 added to 100 mL of 1%, 2.5% and 5% aqueous solutions of all ingredients except coenzyme Q10
Procedure: To test this theory a 1%, 2.5% and 5% aqueous solutions of the all the composition ingredients except coenzyme Q10 were made in 100 mL volumetric flasks. A 5 mg aliquot of coenzyme Q10 was then separately added to each of the flasks and shaken.

[2] = Water solubility of coenzyme Q10 alone; assay type: physicochemical
[3] = as disclosed in WO 95/05164; cited from earlier work

- water solubility [2]: not water soluble at any level
SMILES: COC1=C(OC)C(=O)C(C/C=C(\C)CC/C=C(\C)CC/C=C(\C)CC/C=C(\C)CC/C=C(\C)CC/C=C(\C)CC/C=C(\C)CC/C=C(\C)CC/C=C(\C)CCC=C(C)C)=C(C)C1=O [coenzyme Q10, 2,3-dimethoxy-5-methyl-6-decaprenyl-1,4-benzoquinone]
- behaviour in ultra sound bath [1]: dispersed then settled to the bottom of the flask
- dissolution or dispersion after shaking [1]: did not go into solution or form a dispersion
- water solubility [3]: practically insoluble in water
